Results on four compounds are retold here after patent US20160262394A1, “COMPOSITION COMPRISING AN ACTIVE AND A GRAFT COPOLYMER MADE OF N-VINYLLACTAM, VINYL ESTER, AND AN ALCOHOL ALKOXYLATE” (BASF SE, priority 2013, published 2016).

In brackets after ≈: the same amount, converted by molar mass.

Data set [1] can be described thus: Solubilization of active in 3 wt % polymer solution (high-throughput robot, UV/VIS). Format: physicochemical. As for the experimental part:
Solubilization measurements were carried out with a highthroughput screening robot. This setup dosed 10 mg solid active and […] of the respective 3 wt % liquid polymer solution (in Cl-PAC water D) into wells on a micro titer plate. After the addition of stirring bars and 24 hours incubation time the samples were filtrated via polypropylene filters in order to separate dissolved active and its solid formatted. The amount of solubilized active was determined via UV/VIS spectroscopy.

The conditions of data set [2]: at 20° C.; cited from earlier work.

Regarding `N#Cc1nn(-c2c(Cl)cc(C(F)(F)F)cc2Cl)c(N)c1[S+]([O-])C(F)(F)F` (centres unmarked) [fipronil], the Solubility of fipronil in data set [1] is reported as 12 ppm.
For `Cn1cc(C(=O)Nc2ccccc2-c2cc(F)c(F)c(F)c2)c(C(F)F)n1` [fluxapyroxad], the water solubility in data set [2] was 4 µg/mL (≈ 10.5 µM). The “Solubility of Xemium ® (fluxapyroxad)” value in data set [1] (Active without polymer) was 10 ppm.
With `NC(=O)N1c2ccccc2C=Cc2ccccc21` [cabamazepine], in data set [1] (Active without polymer), the Solubility of cabamazepine worked out at 181 ppm.
Regarding `CC(O)(Cn1cncn1)c1ccc(Oc2ccc(Cl)cc2)cc1C(F)(F)F` (centres unmarked) [2-[4-(4-chlorophenoxy)-2-(trifluoromethyl)phenyl]-1-(1H-1,2,4-triazol-1-yl)propan-2-ol], the “Solubility of the triazole fungicide 2-[4-(4-chlorophenoxy)-2-(trifluoromethyl)phenyl]-1-(1H-1,2,4-triazol-1-yl)propan-2-ol” value in data set [1] (Active without polymer) came out at 15 ppm.
